Measured values: ChEMBL document CHEMBL1201862, “PubChem BioAssay data set” (2004)
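Growth conditions: 96-well plates. Treatment: test compound, 48 hours, 5 concentrations. Analysis: linear interpolation between bracketing concentrations; unreached endpoints set to highest concentration. GI50: concentration for 50% inhibition of growth.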 Activity calls are given as the source filed them. No stated cut-off is given here; in the data, active = GI50 up to about 1.1 µM and inactive = higher.

Tests used:
Experiment in all cases: NCI-60 cell line screen, 48 h
[1] = system: NCI-H460
[2] = system: HCC 2998
[3] = system: COLO 205
[4] = system: CAKI-1
[5] = system: TK-10
[6] = system: HT-29
[7] = system: OVCAR-8
[8] = system: SK-MEL-5
[9] = system: SN12C
[10] = system: HCT-15
[11] = system: HOP-92
[12] = system: RPMI-8226
[13] = system: SK-OV-3
[14] = system: MOLT-4
[15] = system: LOX IMVI
[16] = system: SK-MEL-2

Row | Structure (SMILES) | GI50 [1] | GI50 [2] | GI50 [3] | GI50 [4] | GI50 [5] | GI50 [6] | GI50 [7] | GI50 [8] | GI50 [9] | GI50 [10] [µM] | GI50 [11] | GI50 [12] | GI50 [13] | GI50 [14] | GI50 [15] | GI50 [16]
1 | COc1cc(Br)c(/C=N\c2cccc3cc(OC)c(OC)cc23)cc1OC | > 100 µM (inactive) | > 100 µM (inactive) | 97.7 µM (inactive) | 41.5 µM (inactive) | 83.2 µM (inactive) | 31.9 µM (inactive) | 34.7 µM (inactive) | 36.1 µM (inactive) | 40.6 µM (inactive) | 31.4 | 28.2 µM (inactive) | 23.9 µM (inactive) | > 100 µM (inactive) | 26.8 µM (inactive) | 35.3 µM (inactive) | 
2 | O=C(CC(=O)C(=O)CC(=O)OCc1ccccc1)OCc1ccccc1 |  | > 100 µM (inactive) | > 100 µM (inactive) | > 100 µM (inactive) | > 100 µM (inactive) | > 100 µM (inactive) | > 100 µM (inactive) | 66.1 µM (inactive) | 57.1 µM (inactive) | > 100 | 58.1 µM (inactive) | 45.8 µM (inactive) | > 100 µM (inactive) | 64.3 µM (inactive) |  | > 100 µM (inactive)
3 | CCCS(=O)(=O)/C(=C(\c1ccc(Br)cc1)S(=O)(=O)CCC)c1ccc(Br)cc1 | > 10 µM (inactive) | > 10 µM (inactive) | > 10 µM (inactive) | > 10 µM (inactive) | > 10 µM (inactive) | > 10 µM (inactive) | > 10 µM (inactive) | > 10 µM (inactive) | > 10 µM (inactive) | > 10 | > 10 µM (inactive) | > 10 µM (inactive) | > 10 µM (inactive) | > 10 µM (inactive) | > 10 µM (inactive) | > 10 µM (inactive)
4 | CC(=O)OCC1OC(NC(=S)N/N=C2\CC(c3ccccc3)Oc3ccccc32)C(OC(C)=O)C(OC(C)=O)C1OC(C)=O (stereo unspecified) | > 100 µM (inactive) | > 100 µM (inactive) | > 100 µM (inactive) | > 100 µM (inactive) | > 100 µM (inactive) | > 100 µM (inactive) | > 100 µM (inactive) | > 100 µM (inactive) | > 100 µM (inactive) | > 100 | > 100 µM (inactive) | > 100 µM (inactive) | > 100 µM (inactive) | > 100 µM (inactive) | > 100 µM (inactive) | 
5 | CCOC(=O)C1=C(C)N(Cc2ccccc2)C(C)=C(C(=O)OCC)C1c1ccccc1O | 42.3 µM (inactive) | 44.8 µM (inactive) | 13 µM (inactive) | 27.2 µM (inactive) | 47.5 µM (inactive) | 41.4 µM (inactive) | 31.7 µM (inactive) | 16.1 µM (inactive) | 28.4 µM (inactive) | 30.1 | 13.7 µM (inactive) |  | 47.2 µM (inactive) | 11.3 µM (inactive) | 17.9 µM (inactive) | 20 µM (inactive)
6 | COC(=O)C1(C(C)C)CCc2c(OC)ccc(OC)c2C1=O (stereo unspecified) | > 100 µM (inactive) | > 100 µM (inactive) | > 100 µM (inactive) | > 100 µM (inactive) | > 100 µM (inactive) | > 100 µM (inactive) | > 100 µM (inactive) | > 100 µM (inactive) | > 100 µM (inactive) | > 100 |  | 93.3 µM (inactive) | > 100 µM (inactive) | 74.3 µM (inactive) | > 100 µM (inactive) | > 100 µM (inactive)
7 | O=C1c2ccccc2C2(Br)C(=O)c3ccccc3C12 (stereo unspecified) | > 100 µM (inactive) | > 100 µM (inactive) | > 100 µM (inactive) | > 100 µM (inactive) | > 100 µM (inactive) | > 100 µM (inactive) | > 100 µM (inactive) | > 100 µM (inactive) | > 100 µM (inactive) | > 100 | > 100 µM (inactive) | > 100 µM (inactive) | > 100 µM (inactive) | > 100 µM (inactive) | 11.1 µM (inactive) | > 100 µM (inactive)
8 | O=C1OC2CCCC[C@@H]2C2C[C@]34CCCCC3[C@@H](C(=O)O4)C12 (stereo partly specified) | > 100 µM (inactive) | > 100 µM (inactive) | > 100 µM (inactive) |  | > 100 µM (inactive) | > 100 µM (inactive) | > 100 µM (inactive) | > 100 µM (inactive) | > 100 µM (inactive) | > 100 | > 100 µM (inactive) |  | > 100 µM (inactive) | > 100 µM (inactive) | > 100 µM (inactive) | > 100 µM (inactive)
9 | CSc1ccc2c(cc1=O)C(NC(=O)c1cc(O)c(OC(=O)O)c(O)c1)CCc1cc(O)c(O)c(O)c1-2 (stereo unspecified) | 20.7 µM (inactive) | > 89.9 µM (inactive) | 30.3 µM (inactive) | 19.3 µM (inactive) | > 89.9 µM (inactive) | 20 µM (inactive) | 28.9 µM (inactive) | 15.7 µM (inactive) | 13.3 µM (inactive) | 16.1 | 22.8 µM (inactive) | 14.5 µM (inactive) | > 89.9 µM (inactive) | 16.7 µM (inactive) | 12.9 µM (inactive) | > 89.9 µM (inactive)
